Read-outs that look alike come from different tables or passages of the source.
Legend:
[1] = tested on: MCF-7 cells; assay: Antiproliferative/cytotoxic activity in cultured MCF-7 cells (SRB assay); type: cell-based; details: Homo sapiens, MCF7, 48 h, MCF-7, 48 h
Method: The procedure is based on the following methods: New calorimetric assay for anticancer drug screening, Skehan et al., J Natn Cancer Inst, 82,1107, 1990 and Feasibility of a high-flux anticancer drug screen using a diverse panel of cultured human tumor cell lines, J Natn Cancer Inst, 83,757, 1991.
A fully confluent flask of MCF-7 cells in trypsinized and 10^4 cells/well are plated in a 96 welled flat bottomed plate in 200 μl Minimum Essential Medium (MEM), pH 7.4 and allowed to attach for 24 h at 37° C. in a humidified CO2 incubator. Subsequently, the compound of invention dissolved in DMSO or ethanol is added at a specified concentration and further incubated for 48 h as before. The cells are then fixed in 50 μl cold 50% TCA and incubated for 1 h at 4° C. The supernatant is discarded and the plate is washed five times with deionized water and air-dried. 100 μl of 0.4% (w/v) Sulforhodamine B (SRB) in 1% acetic acid is added to each well and incubated at room temperature for 30 minutes. Unbound SRB is removed by five washes with chilled 1% acetic acid and the plate is air-dried. 200 μl of unbuffered 10 mM Tris base is added to solublize the bound stain for 5 minutes at room temperature and O.D. is read at 560 nm in a plate reader. The graph is plotted between O.D. and concentration and LC50 is calculated with respect to tamoxifen, which is used as a positive control.

[2] = tested on: adult female rats; assay: Post-coital antifertility efficacy in adult female rats; type: in vivo, rat; details: daily dose 10 mg/kg, oral, days 1-7 post-coitum
[3] = tested on: immature ovariectomized rats; assay: Estrogen antagonistic activity: inhibition in 17α-ethynylestradiol induced uterine weight gain in immature ovariectomized rats; type: in vivo, rat; details: Rattus norvegicus, 72 h, 3 days, read-out: Percent inhibition in 17α-ethynylestradiol induced uterine weight gain; for inhibition in vivo at 10 mg/kg/day: daily dose 10 mg/kg with 0.02 mg/kg 17-alfa-ethynylestradiol
[4] = target: T1, estrogen receptors (Rattus norvegicus, UniProt P06211); assay: Relative binding affinity (RBA) to estrogen receptors, 3H-estradiol competition assay; design: key: % of 17-beta-estradiol binding affinity (estradiol = 100); details: relative to 17-beta-estradiol (=100, percentage value); rat uterine cytosol, 3H-E2, 18 hrs at 4° C.
T1 construct: Aliquot of uterine cytosol (200 μl; 2 uteri per ml) prepared in TEA buffer; from tissue; host or cells: uterine cytosol of immature estradiol-primed 20-21 day old rats
T1 sequence (P06211 1-600): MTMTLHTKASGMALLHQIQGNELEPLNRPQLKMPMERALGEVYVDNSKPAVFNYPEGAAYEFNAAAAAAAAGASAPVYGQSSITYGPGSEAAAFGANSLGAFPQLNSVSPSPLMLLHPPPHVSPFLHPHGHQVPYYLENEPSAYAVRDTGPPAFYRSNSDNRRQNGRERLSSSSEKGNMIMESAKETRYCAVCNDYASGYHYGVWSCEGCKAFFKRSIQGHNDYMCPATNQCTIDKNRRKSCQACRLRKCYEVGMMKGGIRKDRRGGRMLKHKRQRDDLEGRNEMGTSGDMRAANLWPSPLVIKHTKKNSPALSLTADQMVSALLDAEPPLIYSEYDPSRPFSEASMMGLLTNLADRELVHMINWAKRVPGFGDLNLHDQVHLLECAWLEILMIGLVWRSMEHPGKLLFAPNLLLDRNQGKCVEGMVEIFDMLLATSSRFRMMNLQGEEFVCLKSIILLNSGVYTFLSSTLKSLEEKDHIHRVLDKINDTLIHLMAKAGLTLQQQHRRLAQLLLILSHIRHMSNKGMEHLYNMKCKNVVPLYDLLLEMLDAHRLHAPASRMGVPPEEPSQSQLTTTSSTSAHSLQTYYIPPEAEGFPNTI
Method in brief: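 Competition against a fixed concentration of ³H-estradiol for cytosolic receptor from uteri of immature (20-21 day) estradiol-primed rats, in TEA buffer pH 7.4 with ≤5% DMF, 18 h at 4° C. Free ligand removed with dextran-coated charcoal; bound radioactivity counted and RBA read from percent-bound vs log concentration plot, expressed as percentage.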

SMILES	CC50 ([1]; read-out: LC50, Test-1)	CC50 ([1]; read-out: LC50, Test-3)	% Efficacy [2]	inhibition in vivo at 10 mg/kg/day [3]	RBA [4]	inhibition in vivo at 1 mg/kg/day ([3]; daily dose 1 mg/kg with 0.02 mg/kg 17-alfa-ethynylestradiol)
c1ccc2c(c1)SCCc1c-2n(CCCCCCN2CCCCC2)c2ccccc12 [Example number 18, 12-[6-(Piperidine-1-yl)hexyl]-6,7-dihydro-12H-benzothiepino [5,4-b]indole]	18.2 µM	9.63 µM	Inactive	19%	0.17	–
CCCCN(C)CCCCCn1c2c(c3ccccc31)CCSc1ccccc1-2 [Example number 13, 12-[5-(N-butylmethylamino)pentyl]-6,7-dihydro-12H-benzothiepino [5,4-b]indole]	24 µM	–	Inactive	37%	<0.001	12%

From patent US20050282863A1, “Novel-N substituted dihydrobenzothiepino, dihydrobenzoxepino and tetrahydro benzocyclohepta indoles as selective estrogen receptor modulators” (Council of Scientific & Industrial Research, priority 2004, published 2005)
